Laboratory results reported in EP4289427A1, “DIHYDRO[1,8]NAPHTHYRIDIN-7-ONE AND PYRIDO[3,2-B][1,4]OXAZIN-3-ONE FOR USE IN TREATING CANCER, AND METASTASES IN PARTICULAR” (Anagenesis Biotechnologies, priority 2022, dated 2023).

Legend:
4T1 cells = test: Cytotoxicity assay (CellTiter-Glo 2.0) on 4T1 cells; type: cell-based, Mouse; conditions: incubation 2 days; for IC50: Mus musculus, 48 h; on Cytotoxicity: test concentration or dose not given here
Summary of the method: (§1)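 Seed cells day 0 in respective growth medium; add compounds; incubate for line-specific time; add CellTiter-Glo 2.0, shake, 10 min RT dark; read luminescence; calculate viability and relative IC50.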

MDA-MB-231 cells = test: Cytotoxicity assay (CellTiter-Glo 2.0) on MDA-MB-231 cells; type: cell-based, Human; conditions: incubation 3 days; for IC50: Homo sapiens, 72 h; on Cytotoxicity: test concentration or dose not given here
Summary of the method: as §1

HUVECs = test: Tube formation assay (anti-angiogenic activity); type: cell-based, human; conditions: incubation 16 to 18 hours; for IC50: Homo sapiens, HUVEC; on Angiogenesis inhibition: test concentration or dose not given here
Summary of the method: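 HUVECs plated at 5000 cells/well on reduced growth factor basement membrane matrix, then exposed to compounds for 16 to 18 hours at 37°C. Cells stained with calcein-AM; tube networks imaged by confocal fluorescence microscopy and quantified.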

EoL-1 cells = test: Cytotoxicity assay (CellTiter-Glo 2.0) on EoL-1 cells; type: cell-based, Human; conditions: incubation 1 day; for IC50: Homo sapiens, EOL1, 24 h; on Cytotoxicity: test concentration or dose not given here
Summary of the method: as §1

RD cells = test: Cytotoxicity assay (CellTiter-Glo 2.0) on RD cells; type: cell-based, Human; conditions: for IC50: Homo sapiens; on Cytotoxicity: test concentration or dose not given here
Summary of the method: as §1

SMILES | IC50 (4T1 cells) [µM] | Cytotoxicity (4T1 cells) | IC50 (MDA-MB-231 cells) [µM] | Cytotoxicity (MDA-MB-231 cells) | IC50 (HUVECs) [µM] | Angiogenesis inhibition (HUVECs) | IC50 (EoL-1 cells) [µM] | Cytotoxicity (EoL-1 cells) | Cytotoxicity (RD cells; 2 day-treatment) | Cytotoxicity (RD cells; 4 day-treatment) | IC50 (RD cells; 48 h, 2 day-treatment) [µM] | IC50 (RD cells; 96 h, 4 day-treatment) [µM]
CSc1cc(Oc2ccnc3c2OCC(=O)N3)ccc1NC(=O)Nc1cc(C(C)(C)C)nn1-c1ccc(F)cc1F [Compound 031, 1-[5-tert-butyl-2-(2,4-difluorophenyl)pyrazol-3-yl]-3-[2-methylsulfanyl-4-[(3-oxo-4H-pyrido[3,2-b][1,4]oxazin-8-yl)oxy]phenyl]urea] | 1 to 5 | +++ (cytotoxicity ≥ 85%) | 1 to 5 | ++ (50% ≤ cytotoxicity < 85%) | 0.1 to 0.5 | +++ (angiogenesis inhibition ≥ 80%) | 0.001 to 0.01 | +++ (cytotoxicity ≥ 85%) | ++ (50% ≤ cytotoxicity < 85%) | ++ (50% ≤ cytotoxicity < 85%) | 1 to 5 | 1 to 5
CC(C)(C)c1cc(NC(=O)Nc2ccc(Oc3ccnc4c3OCC(=O)N4)cc2C(F)(F)F)n(-c2cccc(F)c2)n1 [Compound 014, 1-[5-tert-butyl-2-(3-fluorophenyl)pyrazol-3-yl]-3-[4-[(3-oxo-4H-pyrido[3,2-b][1,4]oxazin-8-yl)oxy]-2-(trifluoromethyl)phenyl]urea] | 1 to 5 | +++ (cytotoxicity ≥ 85%) | 1 to 5 | + (20 % ≤ cytotoxicity < 50%) | 0.1 to 0.5 | +++ (angiogenesis inhibition ≥ 80%) | 0.01 to 0.1 | ++ (50% ≤ cytotoxicity < 85%) | + (20 % ≤ cytotoxicity < 50%) | + (20 % ≤ cytotoxicity < 50%) | 5 to 10 | ≥ 10
CSc1cc(Oc2ccnc3c2OCC(=O)N3)ccc1NC(=O)Nc1cc(C(C)(C)C)nn1-c1ccc(CCN(C)C)cc1 [Compound 051, 1-[5-tert-butyl-2-[4-[2-(dimethylamino)ethyl]phenyl]pyrazol-3-yl]-3-[2-methylsulfanyl-4-[(3-oxo-4H-pyrido[3,2-b][1,4]oxazin-8-yl)oxy]phenyl]urea] | 1 to 5 | +++ (cytotoxicity ≥ 85%) | 1 to 5 | +++ (cytotoxicity ≥ 85%) | < 0.1 | +++ (angiogenesis inhibition ≥ 80%) | 0.001 to 0.01 | +++ (cytotoxicity ≥ 85%) | +++ (cytotoxicity ≥ 85%) | +++ (cytotoxicity ≥ 85%) | 1 to 5 | 1 to 5
CC(C)(C)c1cc(NC(=O)Nc2ccc(Oc3ccnc4c3CCC(=O)N4)cc2C(F)(F)F)no1 [Compound 024, 1-(5-tert-butylisoxazol-3-yl)-3-[4-[(7-oxo-6,8-dihydro-5H-1,8-naphthyridin-4-yl)oxy]-2-(trifluoromethyl)phenyl]urea] | 1 to 5 | ++ (50% ≤ cytotoxicity < 85%) | 1 to 5 | ++ (50% ≤ cytotoxicity < 85%) | 0.1 to 0.5 | ++ (80% > angiogenesis inhibition ≥ 50%) | 0.001 to 0.01 | +++ (cytotoxicity ≥ 85%) | ++ (50% ≤ cytotoxicity < 85%) | ++ (50% ≤ cytotoxicity < 85%) | 1 to 5 | 1 to 5
CSc1cc(Oc2ccnc3c2OCC(=O)N3)ccc1NC(=O)Nc1cc(C(C)(C)C)nn1-c1ccc(CN2CCOCC2)cc1 [Compound 038, 1-[5-tert-butyl-2-[4-(morpholinomethyl)phenyl]pyrazol-3-yl]-3-[2-methylsulfanyl-4-[(3-oxo-4H-pyrido[3,2-b][1,4]oxazin-8-yl)oxy]phenyl]urea] | 1 to 5 | +++ (cytotoxicity ≥ 85%) | 1 to 5 | ++ (50% ≤ cytotoxicity < 85%) | 0.1 to 0.5 | +++ (angiogenesis inhibition ≥ 80%) | 0.001 to 0.01 | ++ (50% ≤ cytotoxicity < 85%) | ++ (50% ≤ cytotoxicity < 85%) | ++ (50% ≤ cytotoxicity < 85%) | 1 to 5 | 1 to 5
